Experimental data: patent publication US9156790B2, “Anticancer P21-activated kinase inhibitors” (Ohio State Innovation Foundation, priority 2013, dated 2015)
Where two headings read alike, the source gives them in different places.

Key:
BCPAP cells = experiment: MTT cell viability assay, BCPAP; assay type: cell-based, Human; conditions: 72-hours of exposure, 1% FBS, mean±standard deviation (n=3), read-out: IC50 for reducing viability of BCPAP cells versus DMSO control
From the text: (§1) Human thyroid cancer BCPAP, TPC1, and FTC133 cell lines were the generous gifts of Drs. Rebecca Schweppe and Bryan Haugen (University of Colorado Denver) (Schweppe et al., The Journal of clinical endocrinology and metabolism 83:4331-4341 (2008)) with permission from the following originating laboratories: BCPAP—Dr. Fabien, Centre Hospitalier Lyon-Sud, France (Fabien et al., Cancer 73:2206-2212 (1994)); TPC1—Dr. Sato, Kanazawa University, Japan (Tanaka et al., Virology 161:62-411 (1987)); and FTC133—Dr. Goretzki, University of Leipzig, Germany (Goretzki et al., Recent Results Cancer Res 118:48-63 (1990)). The obtained cell lines were confirmed for identity by DNA fingerprinting. BCPAP was grown in RPMI 1640 medium (Life Technologies Co., Carlsbad, Calif.) while FTC133 and TPC1 were grown in DMEM (Life Technologies Co.), both supplemented with 10% fetal bovine serum (FBS) and NEAA unless as noted for experiments.
(§2) The effect of OSU-03012 and its derivatives on cell viability was assessed by using the 3-(4,5-dimethylthiazol-2-yl)-2,5-diphenyl-2H-tetrazolium bromide (MTT) assay. Three replicates were performed in each individual experiment, and experiments were repeated at least three separate times. Cells were grown in 96-well plates for 24 hours and were exposed to various concentrations of drugs dissolved in DMSO (final concentration 0.1%) in RPMI 1640 or DMEM containing 1% FBS for 72 hours. 10 μL of 0.5 mg/ml MTT was added to each well and cells were incubated in CO2 at 37° C. for 2 hours. Supernatants were removed from the wells, the reduced MTT dye was solubilized in 100 μL of solution C (12 ml of 1N HCl in 300 mL of isopropanol), and absorbance at 570 nm was determined on a microplate reader.
(§3) We assessed the ability of the compounds to reduce cell viability in vitro by MTT assay after 72 hours of continuous exposure. Results are shown in Table 1 and are depicted as the IC50 vs. simultaneously performed DMSO control.
(§4) ^aThe reported IC50 values are concentrations at which BCPAP, FTC133 and TPC1 cell viability by MTT assays 50% of DMSO control after 72-hours of exposure. Data are presented as mean±standard deviation (n=3). PAK and PDK1 Selectivity In Vivo

FTC133 cells = experiment: MTT cell viability assay, FTC133; assay type: cell-based, Human; conditions: 1% FBS, mean±standard deviation (n=3), read-out: IC50 for reducing viability of FTC133 cells versus DMSO control
From the text: as §1, §2, §3, §4

TPC1 cells = experiment: MTT cell viability assay, TPC1; assay type: cell-based, Human; conditions: 1% FBS, mean±standard deviation (n=3), read-out: IC50 for reducing viability of TPC1 cells versus DMSO control
From the text: as §1, §2, §3, §4

Recombinant active PAK 1 = target: T1, Recombinant active PAK 1 (Homo sapiens, UniProt Q13153); experiment: In vitro PAK1 kinase assay (MBP substrate, 32P-ATP); assay type: biochemical; conditions: for Relative PAK1 inhibitory potency (comparison in words): in vitro kinase assay, comparison between compounds / with OSU-03012; for Inhibition of PAK1 kinase activity in initial screen: 7.5 μM inhibitor, 2.5 μM ATP, myelin basic protein substrate (FIG. 2A)
T1 construct: purchased Calbiochem
Procedure: Recombinant active PAK 1 (Calbiochem) was incubated with selected derivatives or 0.1% DMSO in the presence or absence of MBP (Sigma) in a 1× kinase buffer (Cell Signaling). The addition of [γ-32P]-ATP (2.5 μCi/reaction) (Perkin Elmer) started the reaction, which was incubated at 30° C. for 30 minutes. The reaction was terminated by the addition of EDTA. Results were obtained after visualization of ^32P-labeled MBP after separation on 12% polyacrylamide gels and autoradiography. For the Lineweaver-Burk plot analysis, the ratio of radioactive ATP to nonradioactive ATP was not altered. The PAK1 kinase activities are the means of three independent experiments quantified using P81 phosphocellulose paper by a scintillation counter after three washes with 0.75% phosphoric acid.
Screening of OSU-03012 Derivatives to Identify PAK1 Inhibitors. The 17 derivatives along with OSU-03012, each at 7.5 μM, were screened for their ability to inhibit PAK1 activity by in vitro PAK1 kinase assay. The dose was chosen (above the IC50 of OSU-03012) to allow OSU-03012 to serve as a robust positive control. The PAK1 kinase assay was performed using recombinant active PAK1 with myelin basic protein as substrate in the presence of 2.5 μM ATP and 7.5 μM of respective inhibitors.
To further investigate these six compounds, dose-response studies on PAK1 activity were performed by using PAK1 kinase assay. […] We next questioned whether compounds 4 or 15 inhibited PAK1 in an ATP competitive manner as their parent compound OSU-03012.

[1] = Homo sapiens, FTC-133, 72-hours of exposure
[2] = Homo sapiens, TPC1, 72-hours of exposure

T1 sequence (Q13153 whole entry): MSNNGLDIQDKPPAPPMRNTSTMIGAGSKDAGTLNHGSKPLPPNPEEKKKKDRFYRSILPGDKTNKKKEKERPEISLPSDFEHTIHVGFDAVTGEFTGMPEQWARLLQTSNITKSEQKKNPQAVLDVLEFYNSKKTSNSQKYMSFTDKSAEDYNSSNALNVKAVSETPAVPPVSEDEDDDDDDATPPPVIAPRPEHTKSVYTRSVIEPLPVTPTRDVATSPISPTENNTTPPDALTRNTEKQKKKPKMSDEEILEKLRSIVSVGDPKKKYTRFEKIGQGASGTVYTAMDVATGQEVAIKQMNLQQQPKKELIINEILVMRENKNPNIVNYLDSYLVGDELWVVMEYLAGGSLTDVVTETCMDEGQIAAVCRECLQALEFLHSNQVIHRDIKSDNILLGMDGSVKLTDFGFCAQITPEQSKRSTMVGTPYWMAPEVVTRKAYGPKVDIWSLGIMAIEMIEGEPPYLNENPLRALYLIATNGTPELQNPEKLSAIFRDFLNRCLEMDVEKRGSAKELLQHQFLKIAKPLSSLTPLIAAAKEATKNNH

## 1-(4-Aminophenyl)-5-(phenanthren-2-yl)-1H-pyrazol-3-yl) methanol [Compound 6]
BCPAP cells
  IC50: > 10 µM
FTC133 cells; 72-hours of exposure
  IC50: > 10 µM
TPC1 cells; 72-hours of exposure
  IC50: > 10 µM
Recombinant active PAK 1
  Relative PAK1 inhibitory potency (comparison in words): did not show any activity

## NCC(=O)Nc1ccc(-n2nc(C(=O)NCc3ccccc3)cc2-c2ccc3ccc4ccccc4c3c2)cc1 [Compound 1, 1-(4-(2-Aminoacetamido)phenyl)-N-benzyl-5-(phenanthren-3-yl)-1H-pyrazole-3-carboxamide]
BCPAP cells; Homo sapiens, BCPAP
  IC50: 2.01 ± 0.59 µM
FTC133 cells; [1]
  IC50: 4.78 ± 4.53 µM
TPC1 cells; [2]
  IC50: 2.6 ± 0.81 µM
Recombinant active PAK 1
  Inhibition of PAK1 kinase activity in initial screen: inhibited PAK1 kinase activity

## CCNC(=O)c1cc(-c2ccc3ccc4ccccc4c3c2)n(-c2ccc(NC(=O)CN)cc2)n1 [Compound 2, 1-(4-(2-aminoacetamido)phenyl)-N-ethyl-5-(phenanthren-3-yl)-1H-pyrazole-3-carboxamide]
BCPAP cells; Homo sapiens, BCPAP
  IC50: 2.67 ± 0.82 µM
FTC133 cells; [1]
  IC50: 4.83 ± 4.47 µM
TPC1 cells; [2]
  IC50: 1.81 ± 1.24 µM

## NCC(=O)Nc1ccc(-n2nc(C(F)(F)F)cc2-c2ccc3ccc4ccccc4c3c2)cc1 [Compound 3, 2-Amino-N-(4-(5-(phenanthren-3-yl)-3-(trifluoromethyl)-1H-pyrazol-1-yl)phenyl)-acetamide]
BCPAP cells; Homo sapiens, BCPAP
  IC50: 2.34 ± 0.27 µM
FTC133 cells; [1]
  IC50: 5.32 ± 4.05 µM
TPC1 cells; [2]
  IC50: 3.17 ± 1.29 µM
Recombinant active PAK 1
  Inhibition of PAK1 kinase activity in initial screen: inhibited PAK1 kinase activity
  Relative PAK1 inhibitory potency (comparison in words): slightly more potent

## CNC(=O)c1cc(-c2ccc3c(ccc4ccccc43)c2)n(-c2ccc(N)cc2)n1 [Compound 5, 1-(4-Aminophenyl)-N-methyl-5-(phenanthren-2-yl)-1H-pyrazole-3-carboxamide]
BCPAP cells; Homo sapiens, BCPAP
  IC50: > 10 µM
FTC133 cells; [1]
  IC50: 5.03 ± 0.25 µM
TPC1 cells; [2]
  IC50: > 10 µM
Recombinant active PAK 1
  Relative PAK1 inhibitory potency (comparison in words): did not show any activity

## CNC(=O)c1cc(-c2ccc3ccc4ccccc4c3c2)n(-c2ccc(NC(=O)CN)cc2)n1 [Compound 7, 1-(4-(2-aminoacetamido)phenyl)-N-methyl-5-(phenanthren-3-yl)-1H-pyrazole-3-carboxamide]
BCPAP cells; Homo sapiens, BCPAP
  IC50: 3.71 ± 1.82 µM
FTC133 cells; [1]
  IC50: 4.53 ± 2.57 µM
TPC1 cells; [2]
  IC50: 3.67 ± 1.52 µM

## CNC(=O)c1cc(-c2ccc3c(ccc4ccccc43)c2)n(-c2ccc(NC(=O)CN)cc2)n1 [Compound 8, 1-(4-(2-Aminoacetamido)phenyl)-N-methyl-5-(phenanthren-2-yl)-1H-pyrazole-3-carboxamide]
BCPAP cells; Homo sapiens, BCPAP
  IC50: 2.9 ± 2.35 µM
FTC133 cells; [1]
  IC50: 3.08 ± 1.63 µM
TPC1 cells; [2]
  IC50: 4.67 ± 4.16 µM

## NCC(=O)Nc1ccc(-n2nc(CO)cc2-c2ccc3ccc4ccccc4c3c2)cc1 [Compound 9, 2-Amino-N-(4-(3-(hydroxymethyl)-5-(phenanthren-3-yl)-1H-pyrazol-1-yl)phenyl)-acetamide]
BCPAP cells; Homo sapiens, BCPAP
  IC50: 4.04 ± 1.38 µM
FTC133 cells; [1]
  IC50: 4.75 ± 2.47 µM
TPC1 cells; [2]
  IC50: 2.42 ± 0.13 µM
Recombinant active PAK 1
  Relative PAK1 inhibitory potency (comparison in words): did not show any improvement

## NCC(=O)Nc1ccc(-n2nc(CO)cc2-c2ccc3c(ccc4ccccc43)c2)cc1 [Compound 10, 2-Amino-N-(4-(3-(hydroxymethyl)-5-(phenanthren-2-yl)-1H-pyrazol-1-yl)phenyl)-acetamide]
BCPAP cells; Homo sapiens, BCPAP
  IC50: 6.53 ± 2.16 µM
FTC133 cells; [1]
  IC50: 8.95 ± 0.57 µM
TPC1 cells; [2]
  IC50: 7.39 ± 1.9 µM
Recombinant active PAK 1
  Inhibition of PAK1 kinase activity in initial screen: inhibited PAK1 kinase activity
  Relative PAK1 inhibitory potency (comparison in words): more potent activity

## NCCC(=O)Nc1ccc(-n2nc(CO)cc2-c2ccc3c(ccc4ccccc43)c2)cc1 [Compound 12, 3-Amino-N-(4-(3-(hydroxymethyl)-5-(phenanthren-2-yl)-1H-pyrazol-1-yl)phenyl)-propanamide]
BCPAP cells; Homo sapiens, BCPAP
  IC50: 3.76 ± 1.2 µM
FTC133 cells; [1]
  IC50: 7.55 ± 2.19 µM
TPC1 cells; [2]
  IC50: 5.83 ± 1.73 µM

## CNC(=O)c1cc(-c2ccc3ccc4ccccc4c3c2)n(-c2ccc(NC(=O)CCN)cc2)n1 [Compound 13, 1-(4-(3-Aminopropanamido)phenyl)-N-methyl-5-(phenanthren-3-yl)-1H-pyrazole-3-carboxamide]
BCPAP cells; Homo sapiens, BCPAP
  IC50: 2.76 ± 1.56 µM
FTC133 cells; [1]
  IC50: 4.95 ± 3.21 µM
TPC1 cells; [2]
  IC50: 3.62 ± 0.42 µM
Recombinant active PAK 1
  Relative PAK1 inhibitory potency (comparison in words): more potent

## CNC(=O)c1cc(-c2ccc3c(ccc4ccccc43)c2)n(-c2ccc(NC(=O)CCN)cc2)n1 [Compound 14, 1-(4-(3-aminopropanamido)phenyl)-N-methyl-5-(phenanthren-2-yl)-1 μl-pyrazole-3-carboxamide]
BCPAP cells
  IC50: 3.32 ± 1.09 µM
FTC133 cells; 72-hours of exposure
  IC50: 5.42 ± 1.56 µM
TPC1 cells; 72-hours of exposure
  IC50: 5.98 ± 0.28 µM
Recombinant active PAK 1
  Relative PAK1 inhibitory potency (comparison in words): more potent

## Nc1ccc(-n2nc(CO)cc2-c2ccc3ccc4ccccc4c3c2)cc1 [Compound 16, (1-(4-Aminophenyl)-5-(phenanthren-3-yl)-1H-pyrazol-3-yl)methanol]
BCPAP cells; Homo sapiens, BCPAP
  IC50: > 10 µM
FTC133 cells; [1]
  IC50: > 10 µM
TPC1 cells; [2]
  IC50: 4.32 ± 2.18 µM
Recombinant active PAK 1
  Relative PAK1 inhibitory potency (comparison in words): did not show any activity

## CNC(=O)c1cc(-c2ccc3ccc4ccccc4c3c2)n(-c2ccc(N)cc2)n1 [Compound 17, 1-(4-Aminophenyl)-N-methyl-5-(phenanthren-3-yl)-1H-pyrazole-3-carboxamide]
BCPAP cells; Homo sapiens, BCPAP
  IC50: > 10 µM
FTC133 cells; [1]
  IC50: > 10 µM
TPC1 cells; [2]
  IC50: 8.96 ± 1.17 µM
Recombinant active PAK 1
  Relative PAK1 inhibitory potency (comparison in words): did not show any activity
